Measurements reported in PMC6368403, “Identification of a bilirubin receptor that may mediate a component of cholestatic itch” (eLife, 2019).

Tested on: murine peritoneal mast cells
Test: Ca2+ imaging of murine peritoneal mast cells
Format: cell-based, mouse
Conditions: 100 µM bilirubin
Experimental: All cultured cells were maintained in DMEM supplemented with 10% FBS and 1% Penicillin/Streptomycin at 37°C, 5% CO2. All data included were generated from cells tested for mycoplasma and found to be negative. Cells were imaged in calcium imaging buffer (CIB; 10 mM HEPES, 1.2 mM NaHCO3, 130 mM NaCl, 3 mM KCl, 2.5 mM CaCl2, 0.6 mM MgCl2, 20 mM glucose, and 20 mM sucrose at pH 7.4 and 290–300 mOsm). To monitor changes in intracellular [Ca^2+] ([Ca^2+]i), cells were loaded with either Fura 2-AM (HEK293 cells) or Fluo 4-AM (DRG neurons and mast cells) for 30 min in the dark at 37°C in CIB just prior to imaging. With Fura 2-AM, emission at 510 nm was monitored from excitation at both 340 nm and 380 nm. With Fluo 4-AM, emission at 520 nm was monitored from excitation at 488 nm. Cells were identified as responding if the intracellular [Ca^2+] rose by either 50% compared to baseline or 50% compared to the [Ca^2+]i change assayed during addition of 50 mM KCl (neurons only). Damaged, detached, high-baseline, and motion-activated cells were excluded from analysis.
Mast cells were purified as described and plated onto glass coverslips coated with […] fibronectin and allowed to recover for 2 hr at 37°C. Cells were then loaded with Fluo-4 AM.
Adult male mice 8–12 weeks of age were sacrificed through CO2 inhalation. […]

## C=CC1=C(C)/C(=C/c2[nH]c(Cc3[nH]c(/C=C4\NC(=O)C(C)=C4C=C)c(C)c3CCC(=O)O)c(CCC(=O)O)c2C)NC1=O [bilirubin, bilirubin IXα]
  Calcium response of peritoneal mast cells: did not elicit a calcium response
